In general, melting point refers to the temperature of the solid-liquid transition.

This is an account of results in patent US10104891B2 (priority 2014, dated 2018).

Series [1] relates to Pseudoperonospora cubensis. The experiment in a line: Test 2: control effect against cucumber downy mildew. The class given is in vivo. The conditions noted are these: Pseudoperonospora cubensis, 120 h, control value vs untreated section. In short, it runs like this:
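Protective test: zoospores (1.0×10^4 units/ml) misted one day after applying a 4 ppm suspension (wettable powder diluted in 1/5000 Tween20) to 2-leaf cucumber, Sagami hanjiro. After 16 hr at 22° C humid incubation, leaf lesion area read at day 5, expressed as control value versus untreated leaves.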

Series [2] relates to Phytophthora infestans. Briefly: whole plant or invertebrate. The class given is in vivo. The following applies: Phytophthora infestans, in Solanum lycopersicum, 96 h, read-out: control value (Test 1).
The test system of series [3] is Plasmopara viticola. Briefly: Test 3: control effect against grape downy mildew. The class given is in vivo. The conditions noted are these: Plasmopara viticola, 120 h, control value vs untreated section. In short, it runs like this: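 Leaf lesion area, scored 5 days after inoculation and compared with untreated plants, gives the control value. Inoculation used P. viticola zoospores (1.0×10^4 units/ml) with a 16 hr moist incubation at 22° C. It followed by one day a spray of 4 ppm compound (wettable powder in Tween20) onto Neomuscat seedlings.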

In series [4] the test system is Pythium graminicola. The experiment in a line: Test 4: control effect against rice damping-off by the Pythium fungus (soil lavage). The class given is in vivo. The following applies: 1,000 ppm, 2.5 ml test suspension drenched on contaminated soil, rice (koshihikari). In short, it runs like this:
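Compound at 1,000 ppm in 1/5000 Tween20 was drenched (2.5 ml) onto Koshihikari rice seeds, 3 pre-sprouted seeds per cell, sown in soil infested with Pythium graminicola (5 g/kg). Regime: 28 °C for 72 h, 5 °C for 2 days, then 25 °C for 14 days. Dead and stunted seedlings were scored into an onset rate, and control value = (1 − treated/untreated) × 100.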

The compound `Cc1cc(C(F)(F)F)nn1CC(=O)N1CCC(c2nc(C3OCc4c(F)ccc(OS(C)(=O)=O)c4CO3)cs2)CC1` (centres unmarked) [Compound 1-8, 4-[4-(6-fluoro-9-methylsulfonyloxy-1,5-dihydro-3H-2,4-benzodioxepin-3-yl)-2-thiazolyl]-1-[2-[5-methyl-3-(trifluoromethyl)-1H-pyrazole-1-yl]acetyl]piperidine] registered a melting point of 151 °C. In series [1], this compound returned a pest or weed control at 4 µg/mL of 100%. The pest or weed control at 4 µg/mL in series [2] is 100%. Moreover, the pest or weed control at 4 µg/mL in series [3] is 100%.

In the case of `Cc1ccc(C)c(CC(=O)N2CCC(c3nc(C4OCc5ccc([N+](=O)[O-])cc5CO4)cs3)CC2)c1` (centres unmarked) [Compound 2-18, 4-[4-(7-nitro-1,5-dihydro-3H-2,4-benzodioxepin-3-yl)-2-thiazolyl]-1-[2-(2,5-dimethylphenyl)acetyl]piperidine], the pest or weed control at 4 µg/mL in series [1], in series [2] and in series [3] was 100% throughout. The pest or weed control at 1000 ppm in series [4] was at least 90%.

Regarding `O=C(Cc1cc(Cl)ccc1Cl)N1CCC(c2nc(C3OCc4cccc(Br)c4CO3)cs2)CC1` (centres unmarked) [Compound 2-19, 4-[4-(6-bromo-1,5-dihydro-3H-2,4-benzodioxepin-3-yl)-2-thiazolyl]-1-[2-(2,5-dichlorophenyl)acetyl]piperidine], the pest or weed control at 4 µg/mL in series [1], in series [2] and in series [3] was 100% throughout. Also, the pest or weed control at 1000 ppm in series [4] is at least 90%.

In the case of `COc1ccc(Cl)c2c1COC(c1csc(C3CCN(C(=O)Cc4cc(C)ccc4C)CC3)n1)OC2` (centres unmarked) [Compound 2-20, 4-[4-(6-chloro-9-methoxy-1,5-dihydro-3H-2,4-benzodioxepin-3-yl)-2-thiazolyl]-1-[2-(2,5-dimethylphenyl)acetyl]piperidine], the pest or weed control at 4 µg/mL in series [1], in series [2] and in series [3] was 100% in each case. In series [4], this compound displayed a pest or weed control at 1000 ppm of at least 90%.

Consider `O=C(Cc1cc(Cl)ccc1Cl)N1CCC(c2nc(C3OCc4cccc(Cl)c4CO3)cs2)CC1` (centres unmarked) [Compound 2-22, 4-[4-(6-chloro-1,5-dihydro-3H-2,4-benzodioxepin-3-yl)-2-thiazolyl]-1-[2-(2,5-dichlorophenyl)acetyl]piperidine], for which the pest or weed control at 4 µg/mL in series [1], in series [2] and in series [3] was 100% each time. In series [4], this compound registered a pest or weed control at 1000 ppm of at least 90%.

For `COc1ccc(Cl)c2c1COC(c1csc(C3CCN(C(=O)Cc4cc(Cl)ccc4Cl)CC3)n1)OC2` (centres unmarked) [Compound 2-23, 4-[4-(6-chloro-9-methoxy-1,5-dihydro-3H-2,4-benzodioxepin-3-yl)-2-thiazolyl]-1-[2-(2,5-dichlorophenyl)acetyl]piperidine], the pest or weed control at 4 µg/mL in series [1], in series [2] and in series [3] was 100% each time. Also, the pest or weed control at 1000 ppm in series [4] is at least 90%.

For `O=C(Cc1cc(Cl)ccc1Cl)N1CCC(c2nc(C3OCc4c(F)c(F)c(F)c(F)c4CO3)cs2)CC1` [Compound 2-29, 4-[4-(6,7,8,9-tetrafluoro-1,5-dihydro-3H-2,4-benzodioxepin-3-yl)-2-thiazolyl]-1-[2-(2,5-dichlorophenyl)acetyl]piperidine], the pest or weed control at 4 µg/mL in series [1], in series [2] and in series [3] was 100% each time. The same compound registered a pest or weed control at 1000 ppm in series [4] of at least 90%.

As to `Cc1ccc(C)c(CC(=O)N2CCC(c3nc(C4OCc5cccc([N+](=O)[O-])c5CO4)cs3)CC2)c1` (centres unmarked) [Compound 2-39, 4-[4-(6-nitro-1,5-dihydro-3H-2,4-benzodioxepin-3-yl)-2-thiazolyl]-1-[2-(2,5-dimethylphenyl)acetyl]piperidine], the pest or weed control at 4 µg/mL in series [1], in series [2] and in series [3] was 100% throughout. For the same compound, in series [4], the pest or weed control at 1000 ppm is at least 90%.

For `COc1ccc(C)c2c1COC(c1csc(C3CCN(C(=O)Cc4cc(C)ccc4C)CC3)n1)OC2` (centres unmarked) [Compound 2-45, 4-[4-(6-methoxy-9-methyl-1,5-dihydro-3H-2,4-benzodioxepin-3-yl)-2-thiazolyl]-1-[2-(2,5-dimethylphenyl)acetyl]piperidine], the figures for the pest or weed control at 4 µg/mL in series [1], in series [2] and in series [3] were 100%, 90% and 100%, respectively. The compound further had a pest or weed control at 1000 ppm in series [4] of at least 90%.

Turning to `O=C(Cc1cc(Cl)ccc1Cl)N1CCC(c2nc(C3OCc4cccc(OC(F)F)c4CO3)cs2)CC1` (centres unmarked) [Compound 2-48, 4-[4-[6-(difluoromethoxy)-1,5-dihydro-3H-2,4-benzodioxepin-3-yl]-2-thiazolyl]-1-[2-(2,5-dichlorophenyl)acetyl]piperidine], the pest or weed control at 4 µg/mL in series [1], in series [2] and in series [3] was 100% each time. In addition, the pest or weed control at 1000 ppm in series [4] was at least 90%.

As for `COc1ccc(F)c2c1COC(c1csc(C3CCN(C(=O)Cc4cc(C)ccc4C)CC3)n1)OC2` (centres unmarked) [Compound 2-52, 4-[4-(6-fluoro-9-methoxy-1,5-dihydro-3H-2,4-benzodioxepin-3-yl)-2-thiazolyl]-1-[2-(2,5-dimethylphenyl)acetyl]piperidine], the pest or weed control at 4 µg/mL in series [1], in series [2] and in series [3] was 100% each time. This compound also displayed a pest or weed control at 1000 ppm in series [4] of at least 90%.

In the case of `Cc1ccc(C)c(N(C)C(=O)N2CCC(c3nc(C4OCc5c(F)ccc(OS(C)(=O)=O)c5CO4)cs3)CC2)c1` (centres unmarked) [Compound 2-55, 4-[4-(6-fluoro-9-methylsulfonyloxy-1,5-dihydro-3H-2,4-benzodioxepin-3-yl)-2-thiazolyl]-1-[N-(2,5-dimethylphenyl)-N-methylcarbamoyl]piperidine], the pest or weed control at 4 µg/mL in series [1], in series [2] and in series [3] was 100% each time. Besides, in series [4], the pest or weed control at 1000 ppm is at least 90%.

As to `Cc1ccc(C)c(N(C)C(=O)N2CCC(c3nc(C4OCc5cccc(OS(C)(=O)=O)c5CO4)cs3)CC2)c1` (centres unmarked) [Compound 2-56, 4-[4-(6-methylsulfonyloxy-1,5-dihydro-3H-2,4-benzodioxepin-3-yl)-2-thiazolyl]-1-[N-(2,5-dimethylphenyl)-N-methylcarbamoyl]piperidine], the values for the pest or weed control at 4 µg/mL in series [1], in series [2] and in series [3] were 30%, 90% and 70%, respectively. In series [4], this compound yielded a pest or weed control at 1000 ppm of at least 90%.

Turning to `Cc1ccc(C)c(CC(=S)N2CCC(c3nc(C4OCc5c(F)ccc(OS(C)(=O)=O)c5CO4)cs3)CC2)c1` (centres unmarked) [Compound 2-57, 4-[4-(6-fluoro-9-methylsulfonyloxy-1,5-dihydro-3H-2,4-benzodioxepin-3-yl)-2-thiazolyl]-1-[2-(2,5-dimethylphenyl)thioacetyl]piperidine], the pest or weed control at 4 µg/mL in series [1], in series [2] and in series [3] was 100% each time. Moreover, in series [4], the pest or weed control at 1000 ppm was at least 90%.
